Data taken from patent publication US20050196795A1, “Methods for diagnosing and treating bladder cancer” (priority 2004, published 2005).

Legend:
[1] = system: HT-1376 bladder epithelial cells; assay: MIF protein synthesis and secretion (cellular and secreted MIF); type: cell-based, human; settings: HT-1376 cells, in vitro treatment
Method: In order to establish the relevance of MIF to urogenital disease in humans we sought to determine if human bladder epithelial cells secrete MIF. Human bladder HT-1376 cells (ATCC, Manasas, Va.) were cultured for 48 hours and the culture medium was assayed for MIF using ELISA. In addition, intracellular content of MIF was assayed from cell lysates. These human bladder adenocarcinoma cells synthesize MIF ([…]). The average MIF concentration secreted into the medium by these cells was 15 ng/ml. Expression of MIF was confirmed by RT-PCR analysis. Thus establishing MIF secretion by human bladder epithelia.
Next, we determined if addition of MIF inhibitors in the culture media changed the synthesis or release of MIF by these cells.
A human MIF-specific “sandwich” ELISA technique was developed, based on the capture of MIF by immobilized monoclonal antibody (MAB289, R&D Systems) followed by detection with goat polyclonal anti-MIF affinity purified IgG (BAF289, R&D Systems). This assay was successfully used previously to detect MIF levels in serum and urine. This is another application of this protocol in which MIF levels are detected in urine for bladder cancer diagnosis and prognosis. Intravesical MIF inhibitors are a potential new treatment for bladder cancer. […]

[2] = system: Human bladder HT-1376 cells; assay: Caspase-3 activity in cell lysates of 48 h cultures (apoptosis); type: cell-based; settings: ANOVA, Newman-Keuls, p<0.05
Method: The reduction in cell proliferation seen with MIF inhibitor treatment could possibly be due to induction of apoptosis. To assess this we determined caspase-3 activity within the cell lysates of 48 h cultures.

HT-1376 cells = assay: Cytokine protein array analysis of secreted cytokines; type: cell-based, human
Method: MIF plays a key role in pro-inflammatory gene and cytokine expression. Therefore changes in MIF expression or protein content are likely to affect the expression of additional cytokines. This may in fact be a key in the utility of MIF inhibition in treating bladder adenocarcinoma. To test this, cytokine expression changes induced by MIF inhibition were also evaluated by cytokine protein array analysis (Ray Biotech, Norcross, Ga.), which detected secreted cytokines. […] A summary of the cytokine secretion changes (2 fold or greater) seen with MIF inhibition is described in Table 1.
HT-1376 cells express and secrete 65 of the 79 cytokines present on the array. The three types of MIF inhibition all affected the cytokine secretion patterns of these cells. In table 1, blank cells indicate no difference between the amounts of cytokine secreted by the treated and control cells. Arrows indicate an increase or decrease in the fold amount of cytokine secreted. […] Healon decreased the secreted amount of 27 cytokines.

[3] = fold vs control, ↓ decrease ↑ increase, Not detected = no longer detectable after treatment

hyaluronan [Healon]
decrease in secreted (extracellular) MIF [1]: 2.8 fold | increase in cellular MIF content [1]: 2 fold | caspase-3 activity [2]: no significant increase | number of secreted cytokines whose amount was decreased (HT-1376 cells; 65 of the 79 cytokines on the array expressed): 27 | Secreted Cytokines: Ang (HT-1376 cells; [3]): Not detected | Secreted Cytokines: Ckβ 8-1 (HT-1376 cells; [3]): Not detected | Secreted Cytokines: Eotaxin (HT-1376 cells; [3]): Not detected | Secreted Cytokines: Eotaxin-3 (HT-1376 cells; [3]): Not detected | Secreted Cytokines: IGF-1 (HT-1376 cells; [3]): Not detected | Secreted Cytokines: IL-1β (HT-1376 cells; [3]): no affect | Secreted Cytokines: MIF (HT-1376 cells; [3]): Not detected | Secreted Cytokines: MIP-3α (HT-1376 cells; [3]): Not detected | Secreted Cytokines: TNF-α (HT-1376 cells; [3]): Not detected
